Consider two sequences from patent publication US8492347B2, “Peptide for induction of immune tolerance as treatment for systemic lupus erythematosus” (The Regents of the University of California, priority 2007, dated 2013).

In one test the test system is BWF1 mice. Description: cytokine and Foxp3 mRNA in mesenteric lymph nodes after peptide feeding. The conditions noted are these: mesenteric lymph nodes one week after feeding. The format is in vivo. On the procedure: Cytokine measurement in the supernatant of cultured spleen cells was done with BD OptEIA™ ELISA kits (BD Biosciences and Bio legends Inc., San Diego, Calif.) for IFNγ, IL-2, TGFβ and IL-10. Intracellular mRNA encoding IFNγ, IL-10, Foxp3 and TGFβ was analyzed by real-time RT PCR. GAPDH was used as a house-keeping gene for normalization.
Real-time PCR was analyzed according to art accepted protocols (see, e.g. Hahn et al., Ann NY Acad Sci 2005; 1051:433-41). Briefly, total RNA was isolated with TRIzol (Invitrogen Life Technologies, Carlsbad, Calif.) as per manufacturer's protocol. Reverse transcription used 50 ng of total RNA. The oligonucleotide sequences used for the primers and TaqMan probes are as follows; IFN-γ forward, 5′ TGA GAC AGA AGT TCT GGG CTTCT 3′ (SEQ ID NO: 9); reverse, 5′ CAAGAT GCA GTG TGT AGC GTTCA 3′ (SEQ ID NO: 10): probe, 6FAM TCC TGCGGCCTAGCTCTGAGA TAMRA (SEQ ID NO: 11). IL-10 forward, 5′ CAGCCGGGAAGACAATAACTG 3′ (SEQ ID NO: 12); reverse, 5′ CCGCAGCTCTAGGAGCATGT 3′ (SEQ ID NO: 13); probe 6FAM ACCCACTTCCCAGTCGGCCAGAG TAMRA. TGFβ forward, 5′ AAACGGAAGCGCATCGAA 3′ (SEQ ID NO: 14); reverse, 5′ […] 3′ (SEQ ID NO: 15), probe 6FAM […] TAMRA (SEQ ID NO: 16). Foxp3 forward, 5′[…] 3′ (SEQ ID NO: 17); reverse, 5′ […] 3′ (SEQ ID NO: 18); probe 6FAM […] TAMRA (SEQ ID NO: 19). The amplification primers were at 900 nM and the probe at 200 nM. A passive reference dye (ROX) provided an internal standard for normalization of FAM fluorescence, correcting for fluctuations due to volume changes. For relative quantitation, a standard curve was constructed for each primer and probe set, using total RNA. RNA was isolated from spleen cells of 10-13 week-old naïve or tolerized mice. Spleen cells from 2 to 3 mice in each group were pooled for each experimental group. For some experiments, CD4^+ and CD8^+ cells were isolated by positive selection using micro beads with Miltenyi AutoMACS as described above. A ribosomal RNA control primer and probe set (Applied Biosystems) were used for normalization purposes. […]

Test [1] deals with naïve BWF1 CD4+ CD25− helper T cells cultured with naïve BWF1 B cells. Description: anti-DNA antibody-forming cells in cultures of BWF1 B cells plus CD4+ CD25− helper T cells after i.v. peptide. The format is in vivo, mice. On the procedure:
FIG. 1 provides a bar graph of data showing that the intravenous administration of either 500 or 250 ug of D-pCons is effective in suppressing anti-DNA antibody production by naïve BWF1 CD4+ CD25− helper T cells cultured with naïve BWF1 B cells. The numbers of splenic B cells making IgG anti-DNA dropped from 65 per 10^6 B cells in the untreated group to 30-32 in the tolerized groups.
FIG. 2 provides a bar graph of data from studies of L-pCons and D-pCons. Both D-pCons and L-pCons peptides were given once i.v. and spleen cells harvested 2 weeks later. Note that for L-pCons, the combination of naïve B cells plus CD4+ CD25− helper T cells gave a mean of 160 anti-DNA antibody-forming cells per 10^6 B cells (column 3), whereas addition of CD4+ CD25+ Treg from tolerized mice to the culture reduced the AFC to 25 per 10^6 B cells (column 4). These differences were statistically significant, p<0.001. Note also that the suppression was abrogated by incubation of the cultures with antibodies to GITR (column 6) or TGFb-LAP (column 7), but not by CTLA4-Ig (column 8).
For tolerance induction, ten-to-twelve week-old BWF1 mice received a single i.v. dose of 1 mg of one of the peptides, dissolved in saline, as reported previously (see, e.g. Singh et al., J Clin Invest 1995; 96:2990-6). Controls in selected experiments were either treated with saline or control peptides.
Assays were performed to measure anti-DNA Ab according to art accepted protocols (see, e.g. Singh et al., J Clin Invest 1995; 96:2990-6; Hahn et al., Arthritis Rheum 2001; 44:432-41; La Cava et al., J Immunol 2004; 173:3542-8; Hahn et al., Ann NY Acad Sci 2005; 1051:433-41; Hahn et al., J Immunol 2005; 175:7728-37; Singh et al., J Immunol 2007; 178:7649-57). […] After 5 days, culture supernatants were collected, concentrated, and analyzed for anti-DNA IgG by ELISA. […]

Where no end group is shown, it is not given here. [ ]: non-standard residue; d: D form.

Turning to “FIEWNKLRFRQGLEW ([dF][dI][dE][dW][dN][dK][dL][dR][dF][dR][dQ]G[dL][dE][dW]) [D-pCons]”, the “mRNA pattern: increase in Foxp3 and TGFb with decrease in IFNg” value with BWF1 mice (high dose 250 ug fed, listed as D-peptide) is reported as “All desired features”. Besides, in test [1] (125 ug dose i.v.), the “suppression of anti-DNA antibody production” value was “not effective in inducing suppression”. Moreover, the “numbers of splenic B cells making IgG anti-DNA” value in test [1] (500 or 250 ug i.v. (tolerized groups), untreated group 65) is recorded as 30-32 per 10^6 B cells.

On to FIEWNKLRFRQGLEW [L-pCons], for which the “mRNA pattern: increase in Foxp3 and TGFb with decrease in IFNg” value is “all desired features” with BWF1 mice (high dose 250 ug fed, listed as L-peptide) and “all desired features” in the test on BWF1 mice (middle dose 100 ug fed, listed as L-peptide). For the same sequence, the “anti-DNA antibody-forming cells (AFC)” value in test [1] (peptide once i.v., spleen cells 2 weeks later, CD4+ CD25+ Treg from tolerized mice added to culture, 160 without Treg, p<0.001) turned out to be 25 per 10^6 B cells.
